Here are results for four compounds from BindingDB's records for doi:10.1021/jm0303352 (National Center For Genetic Engineering and Biotechnology …, 2004).

The term IC50 denotes the concentration that gives 50% inhibition. Low readings indicate inhibition by little substance, high ones a need for much substance.

A short description of test [1]: In vitro antimalarial activity against Plasmodium falciparum Csl-2 triple DHFR mutant (C59R/S108N/I164L)/.
A short description of test [2]: In vitro antimalarial activity relative to trimethoprim against Plasmodium falciparum Vl/S with quadruple DHFR mutant (N51I/C59R/S108N/I164L).
Test [3] can be described thus: In vitro antimalarial activity against Plasmodium falciparum K1CB1 double DHFR mutation (C59R/S108N) relative to trimethoprim.
The nature of test [4]: In vitro antimalarial activity against Plasmodium falciparum Vl/S with quadruple DHFR mutant (N51I/C59R/S108N/I164L).
A short description of test [5]: In vitro antimalarial activity relative to trimethoprim against Plasmodium falciparum TM4/8.2 wtDHFR.
Test [6] in a line: In vitro antimalarial activity against Plasmodium falciparum Csl-2 triple DHFR mutant (C59R/S108N/I164L) relative to trimethoprim.
A short description of test [7]: In vitro antimalarial activity against Plasmodium falciparum K1CB1 double DHFR mutant (C59R/S108N).
A short description of test [8]: In vitro antimalarial activity against Plasmodium falciparum TM4/8.2 wtDHFR.

Where only a bound is given, the exact number is not on record here.

For the compound `COc1ccc(Cc2cnc(N)nc2N)cc1OCc1ccccc1` [5-(3-Benzyloxy-4-methoxy-benzyl)-pyrimidine-2,4-diamine], the concentration for half-maximal inhibition (IC50) in test [1] was 5.73 µM; in test [4], greater than 50 µM; in test [7], 3.83 µM; in test [8] it was 17.5 µM. Moreover, the IC50 ratio in test [2] came to 0.25; in test [3], 0.03; in test [5], 2.62; in test [6], 0.05.

As for `COc1cc(Cc2c(C)nc(N)nc2N)ccc1OCc1ccccc1` [5-(4-(benzyloxy)-3-methoxybenzyl)-6-methylpyrimidine-2,4-diamine], the IC50 in test [1] amounted to 2.85 µM; in test [4] it was 4.82 µM; in test [7] it was 25.2 µM; in test [8], 6.84 µM. Further, the IC50 ratio came out at 0.18 in test [3], 1.03 in test [5] and 0.02 in test [6].

Take `COc1cc(Cc2cnc(N)nc2N)ccc1OCc1cc(OC)c(OC)c(OC)c1` [5-[3-Methoxy-4-(3,4,5-trimethoxy-benzyloxy)-benzyl]-pyrimidine-2,4-diamine]: the IC50 amounted to 30.6 µM in test [1], 26.1 µM in test [4], 27.8 µM in test [7] and 0.31 µM in test [8]. The IC50 ratio in test [3] came out at 0.13; in test [5] it was 0.05; in test [6], 0.26.

Consider `CCc1nc(N)nc(N)c1Cc1ccc(OCc2ccccc2)c(OC)c1` [5-(4-Benzyloxy-3-methoxy-benzyl)-6-ethyl-pyrimidine-2,4-diamine], for which the half-maximal inhibitory concentration (IC50) was 5.37 µM in test [1], 11.3 µM in test [4], 16.3 µM in test [7] and 5.06 µM in test [8]. The IC50 ratio in test [3] came out at 0.12; in test [5] it was 0.76; in test [6], 0.05.
